According to ChEMBL document CHEMBL1909046, “DrugMatrix in vitro pharmacology data”:

How the values were obtained:
[1] = DRUGMATRIX: Sodium/nucleoside co-transporter radioligand binding (ligand: nitrobenzylthioinosine); format: cell membranes, Cavia porcellus, Dunkin-Hartley, Cerebral cortex, Membrane; conditions: Not Active = under 50% inhibition at 10 µM
[2] = biological target: T1, Alpha-1D adrenergic receptor (Homo sapiens, UniProt P25100); format: cell membranes, HEK293, Membrane; conditions: hek293; further: in other assays of this panel Not Active means under 50% inhibition at 10 µM
T1 sequence (P25100 whole entry): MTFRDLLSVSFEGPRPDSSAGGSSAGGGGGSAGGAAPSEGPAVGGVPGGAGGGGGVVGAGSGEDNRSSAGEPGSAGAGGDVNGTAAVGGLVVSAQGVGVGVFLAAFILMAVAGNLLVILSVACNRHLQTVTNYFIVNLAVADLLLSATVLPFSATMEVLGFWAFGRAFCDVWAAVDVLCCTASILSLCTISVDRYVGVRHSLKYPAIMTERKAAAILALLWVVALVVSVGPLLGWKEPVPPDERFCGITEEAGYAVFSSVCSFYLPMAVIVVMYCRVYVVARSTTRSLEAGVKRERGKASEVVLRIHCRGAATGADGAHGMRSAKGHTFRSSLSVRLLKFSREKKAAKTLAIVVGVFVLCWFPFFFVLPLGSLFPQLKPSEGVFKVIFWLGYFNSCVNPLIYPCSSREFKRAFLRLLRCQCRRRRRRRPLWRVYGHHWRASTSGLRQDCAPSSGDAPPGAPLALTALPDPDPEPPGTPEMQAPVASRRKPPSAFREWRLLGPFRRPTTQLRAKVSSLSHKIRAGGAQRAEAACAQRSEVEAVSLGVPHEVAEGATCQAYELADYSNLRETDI

[3] = DRUGMATRIX: Atrial Natriuretic Factor (ANF) radioligand binding (ligand: [125I] ANF (rat)); format: cell membranes, Cavia porcellus, Dunkin-Hartley, Adrenal gland, Membrane; conditions: Not Active = under 50% inhibition at 10 µM
Substance-K receptor = biological target: T2, Substance-K receptor (Homo sapiens, UniProt P21452); format: cell membranes, CHO, Membrane; conditions: cho; further: in other assays of this panel Not Active means under 50% inhibition at 10 µM
T2 sequence (P21452 whole entry): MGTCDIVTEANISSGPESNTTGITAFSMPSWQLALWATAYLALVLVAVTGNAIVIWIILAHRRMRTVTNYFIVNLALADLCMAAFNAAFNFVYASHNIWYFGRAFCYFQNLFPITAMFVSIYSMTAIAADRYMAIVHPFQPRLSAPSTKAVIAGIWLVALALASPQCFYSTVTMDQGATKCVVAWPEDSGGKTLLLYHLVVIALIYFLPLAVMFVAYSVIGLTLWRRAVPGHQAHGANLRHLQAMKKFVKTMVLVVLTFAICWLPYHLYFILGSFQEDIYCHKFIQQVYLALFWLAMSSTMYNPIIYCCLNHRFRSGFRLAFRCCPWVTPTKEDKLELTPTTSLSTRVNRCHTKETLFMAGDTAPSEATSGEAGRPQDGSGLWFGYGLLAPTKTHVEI

[4] = biological target: Mitogen-activated protein kinase 14 (Homo sapiens, UniProt Q16539); set-up: species or system Escherichia coli;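 further: inhibition of p38alpha enzyme activity in a biochemical kinase assay, with myelin basic protein serving as substrate; in other assays of this panel Not Active means under 50% inhibition at 10 µM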
Sequence of Mitogen-activated protein kinase 14 (Q16539 whole entry): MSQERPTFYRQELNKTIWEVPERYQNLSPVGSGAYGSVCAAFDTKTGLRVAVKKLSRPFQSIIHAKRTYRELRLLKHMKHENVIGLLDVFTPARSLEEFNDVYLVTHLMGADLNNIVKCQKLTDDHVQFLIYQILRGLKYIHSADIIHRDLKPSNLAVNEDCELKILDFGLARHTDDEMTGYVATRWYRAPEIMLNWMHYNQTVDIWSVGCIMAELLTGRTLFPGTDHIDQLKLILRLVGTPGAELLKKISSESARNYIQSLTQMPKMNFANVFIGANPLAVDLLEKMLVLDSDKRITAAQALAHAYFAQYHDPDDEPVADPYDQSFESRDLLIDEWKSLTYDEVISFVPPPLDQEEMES

[5] = biological target: Tyrosine-protein kinase Fyn (Homo sapiens, UniProt P06241); experiment: biochemical; format: cell-based, Insect cells; conditions: insect cells;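 further: enzymatic inhibition of Fyn kinase activity measured with Poly(Glu:Tyr) as the phosphorylation substrate; in other assays of this panel Not Active means under 50% inhibition at 10 µM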
Sequence of Tyrosine-protein kinase Fyn (P06241 whole entry): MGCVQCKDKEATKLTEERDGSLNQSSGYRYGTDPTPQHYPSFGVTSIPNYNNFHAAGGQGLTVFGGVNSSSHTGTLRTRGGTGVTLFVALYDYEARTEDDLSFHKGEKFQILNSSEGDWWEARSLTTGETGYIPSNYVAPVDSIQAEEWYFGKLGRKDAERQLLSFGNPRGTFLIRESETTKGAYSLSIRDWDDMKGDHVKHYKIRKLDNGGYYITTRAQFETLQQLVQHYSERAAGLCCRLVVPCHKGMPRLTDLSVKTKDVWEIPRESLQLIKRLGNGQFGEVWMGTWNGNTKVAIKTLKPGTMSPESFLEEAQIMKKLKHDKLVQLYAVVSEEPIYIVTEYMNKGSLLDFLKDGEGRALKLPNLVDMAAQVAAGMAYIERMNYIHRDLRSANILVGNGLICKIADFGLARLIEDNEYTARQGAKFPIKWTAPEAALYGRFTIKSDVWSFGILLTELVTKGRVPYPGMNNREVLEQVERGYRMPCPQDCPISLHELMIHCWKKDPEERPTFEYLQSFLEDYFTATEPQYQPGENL

CC(C)(CO)C(O)C(=O)NCCCO (configuration not stated) [PANTHENOL]
Not Active: IC50 [1] | Ki [1] | IC50 [2] | IC50 [3] | Ki [3] | IC50 (Substance-K receptor) | IC50 [4] | IC50 [5]

COc1ccc(Cc2nccc3cc(OC)c(OC)cc23)cc1OC [PAPAVERINE]
Not Active: IC50 [1] | Ki [1] | IC50 [2] | IC50 [3] | Ki [3] | IC50 (Substance-K receptor) | IC50 [4] | IC50 [5]

OCCN1CCN(CCCN2c3ccccc3Sc3ccc(Cl)cc32)CC1 [PERPHENAZINE]
Not Active: IC50 [1] | Ki [1] | IC50 [2] | IC50 [3] | Ki [3] | IC50 (Substance-K receptor) | IC50 [4] | IC50 [5]

CCCCC1C(=O)N(c2ccccc2)N(c2ccccc2)C1=O [PHENYLBUTAZONE]
Not Active: IC50 [1] | Ki [1] | IC50 [2] | IC50 [3] | Ki [3] | IC50 (Substance-K receptor) | IC50 [4] | IC50 [5]

Cc1cccc(Nc2cc(Cl)nc(SCC(=O)O)n2)c1C [PIRINIXIC ACID]
Not Active: IC50 [1] | Ki [1] | IC50 [2] | IC50 [3] | Ki [3] | IC50 (Substance-K receptor) | IC50 [4] | IC50 [5]

CC[C@H](C)C(=O)O[C@H]1C[C@H](O)C=C2C=C[C@H](C)[C@H](CC[C@@H](O)C[C@@H](O)CC(=O)O)[C@H]21 [PRAVASTATIN]
Not Active: IC50 [1] | Ki [1] | IC50 [2] | IC50 [3] | Ki [3] | IC50 (Substance-K receptor) | IC50 [4] | IC50 [5]

CC(C)(Sc1cc(C(C)(C)C)c(O)c(C(C)(C)C)c1)Sc1cc(C(C)(C)C)c(O)c(C(C)(C)C)c1 [PROBUCOL]
Not Active: IC50 [1] | Ki [1] | IC50 [2] | IC50 [3] | Ki [3] | IC50 (Substance-K receptor) | IC50 [4] | IC50 [5]

COBALT(II) ACETYLACETONATE
Not Active: IC50 [1] | Ki [1] | IC50 [2] | Ki [2] | IC50 [3] | Ki [3] | IC50 (Substance-K receptor) | Ki (Substance-K receptor) | IC50 [4] | Ki [4] | IC50 [5] | Ki [5]

INSULIN HUMAN
Not Active: IC50 [1] | Ki [1] | IC50 [2] | Ki [2] | IC50 [3] | Ki [3] | IC50 (Substance-K receptor) | Ki (Substance-K receptor) | IC50 [4] | Ki [4] | IC50 [5] | Ki [5]

POLYVINYL ALCOHOL
Not Active: IC50 [1] | Ki [1] | IC50 [2] | Ki [2] | IC50 [3] | Ki [3] | IC50 (Substance-K receptor) | Ki (Substance-K receptor) | IC50 [4] | Ki [4] | IC50 [5] | Ki [5]
